Among the data in ChEMBL document CHEMBL2331417, “Kinetic and anion inhibition studies of a β-carbonic anhydrase (FbiCA 1) from the C4 plant Flaveria bidentis” (Bioorg Med Chem Lett, 2013) are Ki values, retold here.

Assay [1] can be described thus: Inhibition of Flaveria bidentis beta-carbonic anhydrase-1 preincubated for 15 mins by stopped flow CO2 hydration assay.
A short description of assay [2]: Inhibition of Helicobacter pylori beta-carbonic anhydrase preincubated for 15 mins by stopped flow CO2 hydration assay.

A value given as a limit tells only on which side of the number the result lay.

By Ki is commonly meant the dissociation constant of the complex between target and ligand, obtained from inhibition or displacement. A lower Ki goes with higher affinity. Regarding `N=C=[Se]` [SODIUM ISOSELENOCYANATE], the Ki in assay [1] worked out at 880 µM; in assay [2], 970 µM.
Taken in the same sequence, the figures for `O=S(=O)([O-])[O-].[Na+].[Na+]` [SODIUM SULFATE ANHYDROUS] were 620 µM and 570 µM.
Taken in the same sequence, the figures for `F[B-](F)(F)F.[Na+]` [SODIUM TETRAFLUOROBORATE] were over 200000 µM and over 200000 µM.
Taken in the same sequence, the figures for `NS(N)(=O)=O` [SULFAMIDE] were 4 µM and 72 µM.
Take `O=C([O-])O.[Na+]` [SODIUM BICARBONATE]: the Ki in assay [1] was determined as 660 µM.
For the molecule `[F-].[Na+]` [SODIUM FLUORIDE], the Ki is 710 µM in assay [1] and 670 µM in assay [2].
Take `[I-].[Na+]` [SODIUM IODIDE]: the Ki in assay [1] was found to be 710 µM; in assay [2], 630 µM.
Taken in the same sequence, the figures for `S` [SODIUM HYDROSULFIDE] were 860 µM and 580 µM.
Taken in the same sequence, the figures for `N=C=S` [SODIUM ISOTHIOCYANATE] were 830 µM and 680 µM.
For `O=[As](O)(O)c1ccccc1` [PHENYLARSONIC ACID], the Ki in assay [1] is 6 µM.
With `[N-]=[N+]=[N-]` [SODIUM AZIDE], the Ki in assay [1] is 460 µM; in assay [2] it was 800 µM.
In the same order, the values of `NS(=O)(=O)O` [SULFAMATE] are 5 µM and 94 µM.
Take `O=P(O)(O)OP(=O)(O)O` [SODIUM PYROPHOSPHATE]: the Ki in assay [1] turned out to be 830 µM; in assay [2], 750 µM.
Taken in the same sequence, the figures for `O=C([O-])[O-].[Na+].[Na+]` [SODIUM CARBONATE] were 840 µM and 420 µM.
In the same order, the values of `O=NO` [SODIUM NITRITE] are 570 µM and 670 µM.
Taken in the same sequence, the figures for `O=S(=O)(O)ONOS(=O)(=O)O` [SODIUM IMINODISULFATE] were 50900 µM and 700 µM.
With `[Br-].[Na+]` [SODIUM BROMIDE], the Ki in assay [1] amounted to 670 µM; in assay [2], 380 µM.
Taken in the same sequence, the figures for `O=BOB(O)OB(O)OB=O` [SODIUM TETRABORATE] were 860 µM and 680 µM.
Molecule `CC(=O)Nc1nnc(S(N)(=O)=O)s1` [ACETAZOLAMIDE] returned a Ki in assay [1] of […].
As to `[Cl-].[Na+]` [SODIUM CHLORIDE], the Ki is 740 µM in assay [1] and 560 µM in assay [2].
Taken in the same sequence, the figures for `S=C(S)S` [SODIUM CARBONOTRITHIOATE] were 60 µM and 210 µM.
Consider `O=S(=O)(O)OOS(=O)(=O)O` [SODIUM PERSULFATE], for which the Ki is 870 µM in assay [1] and 930 µM in assay [2].
For the molecule `CCN(CC)C(=S)S` [DITIOCARB SODIUM], the Ki was 8 µM in assay [1] and 7.4 µM in assay [2].
With `O=S([O-])O.[Na+]` [SODIUM BISULFITE], the Ki came out at 55300 µM in assay [1] and 630 µM in assay [2].
Taken in the same sequence, the figures for `O=[N+]([O-])[O-].[Na+]` [SODIUM NITRATE] were 780 µM and 780 µM.
With `O=[Te](=O)(O)O` [SODIUM TELLURATE], the figures for the Ki in assay [1] and in assay [2] were 900 µM and 450 µM, respectively.
Taken in the same sequence, the figures for `O=[Se](=O)(O)O` [SODIUM SELENATE] were 24500 µM and 650 µM.
Taken in the same sequence, the figures for `[O-][Cl+3]([O-])([O-])O` [SODIUM PERCHLORATE] were over 200000 µM and 6500 µM.
In the same order, the values of `OB(O)c1ccccc1` [PHENYLBORONIC ACID] are 8 µM and 73 µM.
